Measurements taken from ChEMBL document CHEMBL5303765, “Data for DCP probe BAY-7081” (2023).

Key:
[1] = target: Beta-1 adrenergic receptor (Homo sapiens) (UniProt P08588); settings: Compound concentration 10.0 uM
[2] = target: Sigma non-opioid intracellular receptor 1 (Homo sapiens) (UniProt Q99720); settings: Compound concentration 10.0 uM
[3] = target: Serine/threonine-protein kinase MRCK alpha (Homo sapiens) (UniProt Q5VT25); assay: CDC42BPA SGC Tm panel (DSF); settings: for ΔTm: Compound concentration 10.0 uM
[4] = target: Mitogen-activated protein kinase 8 (Homo sapiens) (UniProt P45983); assay: MAPK8 SGC Tm panel (DSF); settings: for ΔTm: Compound concentration 10.0 uM
[5] = target: T1, Mitogen-activated protein kinase kinase kinase 5 (Homo sapiens) (UniProt Q99683); assay: MAP3K5 SGC Tm panel (DSF); settings: for ΔTm: Compound concentration 10.0 uM
T1 sequence (whole entry): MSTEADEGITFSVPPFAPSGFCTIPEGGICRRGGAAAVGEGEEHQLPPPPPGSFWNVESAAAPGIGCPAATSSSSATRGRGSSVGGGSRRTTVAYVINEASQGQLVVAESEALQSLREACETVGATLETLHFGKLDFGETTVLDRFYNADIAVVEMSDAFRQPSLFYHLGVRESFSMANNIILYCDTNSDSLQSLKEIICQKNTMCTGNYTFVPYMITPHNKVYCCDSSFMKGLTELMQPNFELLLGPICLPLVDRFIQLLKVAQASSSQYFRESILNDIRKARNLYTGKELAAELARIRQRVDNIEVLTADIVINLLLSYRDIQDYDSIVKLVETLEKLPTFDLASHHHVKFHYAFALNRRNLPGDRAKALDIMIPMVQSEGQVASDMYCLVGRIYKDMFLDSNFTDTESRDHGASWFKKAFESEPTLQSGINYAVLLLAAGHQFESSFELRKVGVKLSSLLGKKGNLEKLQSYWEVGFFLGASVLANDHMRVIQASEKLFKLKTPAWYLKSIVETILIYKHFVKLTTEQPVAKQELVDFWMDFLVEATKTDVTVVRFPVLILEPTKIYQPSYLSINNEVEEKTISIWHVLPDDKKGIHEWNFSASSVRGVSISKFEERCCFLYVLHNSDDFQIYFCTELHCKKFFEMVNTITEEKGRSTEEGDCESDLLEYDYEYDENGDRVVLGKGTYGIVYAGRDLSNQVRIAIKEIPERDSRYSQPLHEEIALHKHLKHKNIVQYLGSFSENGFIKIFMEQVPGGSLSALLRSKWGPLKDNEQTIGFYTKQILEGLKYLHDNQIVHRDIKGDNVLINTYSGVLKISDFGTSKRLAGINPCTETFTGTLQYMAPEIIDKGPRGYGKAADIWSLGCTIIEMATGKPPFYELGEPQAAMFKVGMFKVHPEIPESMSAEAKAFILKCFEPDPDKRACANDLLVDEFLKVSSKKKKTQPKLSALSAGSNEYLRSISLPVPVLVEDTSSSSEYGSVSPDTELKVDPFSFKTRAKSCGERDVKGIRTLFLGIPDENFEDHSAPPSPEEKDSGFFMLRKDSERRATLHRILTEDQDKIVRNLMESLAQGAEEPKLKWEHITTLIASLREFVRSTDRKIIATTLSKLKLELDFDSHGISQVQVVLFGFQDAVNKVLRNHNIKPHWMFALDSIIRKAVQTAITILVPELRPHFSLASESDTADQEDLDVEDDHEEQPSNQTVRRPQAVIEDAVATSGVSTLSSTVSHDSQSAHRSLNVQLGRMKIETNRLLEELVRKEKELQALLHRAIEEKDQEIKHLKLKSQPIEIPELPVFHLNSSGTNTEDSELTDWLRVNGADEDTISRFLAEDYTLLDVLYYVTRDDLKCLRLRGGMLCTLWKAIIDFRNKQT

[6] = target: G protein-coupled receptor kinase 5 (Homo sapiens) (UniProt P34947); assay: GPRK5 SGC Tm panel (DSF); settings: for ΔTm: Compound concentration 10.0 uM
[7] = target: T2, Aurora kinase A (Homo sapiens) (UniProt O14965); assay: STK6 SGC Tm panel (DSF); settings: for ΔTm: Compound concentration 10.0 uM
T2 sequence (whole entry): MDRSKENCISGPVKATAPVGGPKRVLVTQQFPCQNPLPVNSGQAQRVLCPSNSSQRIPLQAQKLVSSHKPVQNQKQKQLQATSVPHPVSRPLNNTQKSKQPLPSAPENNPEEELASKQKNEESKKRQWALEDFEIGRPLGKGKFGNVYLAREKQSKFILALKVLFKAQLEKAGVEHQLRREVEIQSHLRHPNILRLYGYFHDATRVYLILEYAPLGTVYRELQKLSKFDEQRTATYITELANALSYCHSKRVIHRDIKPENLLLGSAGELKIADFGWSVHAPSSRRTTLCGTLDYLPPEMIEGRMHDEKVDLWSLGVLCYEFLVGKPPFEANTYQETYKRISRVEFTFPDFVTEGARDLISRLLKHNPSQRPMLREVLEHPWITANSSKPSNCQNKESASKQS

[8] = target: Serine/threonine-protein kinase PAK 1 (Homo sapiens) (UniProt Q13153); assay: PAK1 SGC Tm panel (DSF); settings: for ΔTm: Compound concentration 10.0 uM
[9] = target: T3, D(4) dopamine receptor (Homo sapiens) (UniProt P21917); settings: Compound concentration 10.0 uM
T3 sequence (whole entry): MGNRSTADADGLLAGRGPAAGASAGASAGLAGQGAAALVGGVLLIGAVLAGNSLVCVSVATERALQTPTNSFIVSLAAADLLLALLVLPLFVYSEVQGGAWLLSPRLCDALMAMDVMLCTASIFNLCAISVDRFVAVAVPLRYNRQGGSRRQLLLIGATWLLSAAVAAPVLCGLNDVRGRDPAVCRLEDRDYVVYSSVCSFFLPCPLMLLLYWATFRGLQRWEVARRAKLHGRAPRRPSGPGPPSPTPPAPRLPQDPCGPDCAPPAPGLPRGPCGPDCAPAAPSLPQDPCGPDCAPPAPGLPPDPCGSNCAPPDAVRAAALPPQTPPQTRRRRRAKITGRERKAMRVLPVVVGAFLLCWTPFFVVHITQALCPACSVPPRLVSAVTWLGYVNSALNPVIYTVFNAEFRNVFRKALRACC

[10] = target: Sigma intracellular receptor 2 (Homo sapiens) (UniProt Q5BJF2); settings: Compound concentration 10.0 uM
[11] = target: D(2) dopamine receptor (Homo sapiens) (UniProt P14416); settings: Compound concentration 10.0 uM
[12] = target: MAP kinase-activated protein kinase 2 (Homo sapiens) (UniProt P49137); assay: MAPKAPK2 SGC Tm panel (DSF); settings: for ΔTm: Compound concentration 10.0 uM
[13] = target: SRSF protein kinase 1 (Homo sapiens) (UniProt Q96SB4); assay: SRPK1 SGC Tm panel (DSF); settings: for ΔTm: Compound concentration 10.0 uM
[14] = target: Serine/threonine-protein kinase 24 (Homo sapiens) (UniProt Q9Y6E0); assay: MST3 SGC Tm panel (DSF); settings: for ΔTm: Compound concentration 10.0 uM
Serine/threonine-protein kinase 24 (Homo sapiens), sequence (Q9Y6E0 whole entry, looked up): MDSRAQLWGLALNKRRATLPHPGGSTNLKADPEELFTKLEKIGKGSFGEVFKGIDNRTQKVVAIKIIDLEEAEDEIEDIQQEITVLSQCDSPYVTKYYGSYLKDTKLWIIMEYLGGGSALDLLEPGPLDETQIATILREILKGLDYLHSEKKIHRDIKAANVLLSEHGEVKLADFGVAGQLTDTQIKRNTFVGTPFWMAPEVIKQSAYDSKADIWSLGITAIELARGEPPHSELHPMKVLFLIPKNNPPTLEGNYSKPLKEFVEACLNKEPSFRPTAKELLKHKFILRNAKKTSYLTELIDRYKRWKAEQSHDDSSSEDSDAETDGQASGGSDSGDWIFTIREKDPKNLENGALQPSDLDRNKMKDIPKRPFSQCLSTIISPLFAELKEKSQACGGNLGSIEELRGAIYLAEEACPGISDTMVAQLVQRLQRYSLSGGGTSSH

Serine/threonine-protein kinase MRCK alpha (Homo sapiens), sequence (Q5VT25 whole entry, looked up): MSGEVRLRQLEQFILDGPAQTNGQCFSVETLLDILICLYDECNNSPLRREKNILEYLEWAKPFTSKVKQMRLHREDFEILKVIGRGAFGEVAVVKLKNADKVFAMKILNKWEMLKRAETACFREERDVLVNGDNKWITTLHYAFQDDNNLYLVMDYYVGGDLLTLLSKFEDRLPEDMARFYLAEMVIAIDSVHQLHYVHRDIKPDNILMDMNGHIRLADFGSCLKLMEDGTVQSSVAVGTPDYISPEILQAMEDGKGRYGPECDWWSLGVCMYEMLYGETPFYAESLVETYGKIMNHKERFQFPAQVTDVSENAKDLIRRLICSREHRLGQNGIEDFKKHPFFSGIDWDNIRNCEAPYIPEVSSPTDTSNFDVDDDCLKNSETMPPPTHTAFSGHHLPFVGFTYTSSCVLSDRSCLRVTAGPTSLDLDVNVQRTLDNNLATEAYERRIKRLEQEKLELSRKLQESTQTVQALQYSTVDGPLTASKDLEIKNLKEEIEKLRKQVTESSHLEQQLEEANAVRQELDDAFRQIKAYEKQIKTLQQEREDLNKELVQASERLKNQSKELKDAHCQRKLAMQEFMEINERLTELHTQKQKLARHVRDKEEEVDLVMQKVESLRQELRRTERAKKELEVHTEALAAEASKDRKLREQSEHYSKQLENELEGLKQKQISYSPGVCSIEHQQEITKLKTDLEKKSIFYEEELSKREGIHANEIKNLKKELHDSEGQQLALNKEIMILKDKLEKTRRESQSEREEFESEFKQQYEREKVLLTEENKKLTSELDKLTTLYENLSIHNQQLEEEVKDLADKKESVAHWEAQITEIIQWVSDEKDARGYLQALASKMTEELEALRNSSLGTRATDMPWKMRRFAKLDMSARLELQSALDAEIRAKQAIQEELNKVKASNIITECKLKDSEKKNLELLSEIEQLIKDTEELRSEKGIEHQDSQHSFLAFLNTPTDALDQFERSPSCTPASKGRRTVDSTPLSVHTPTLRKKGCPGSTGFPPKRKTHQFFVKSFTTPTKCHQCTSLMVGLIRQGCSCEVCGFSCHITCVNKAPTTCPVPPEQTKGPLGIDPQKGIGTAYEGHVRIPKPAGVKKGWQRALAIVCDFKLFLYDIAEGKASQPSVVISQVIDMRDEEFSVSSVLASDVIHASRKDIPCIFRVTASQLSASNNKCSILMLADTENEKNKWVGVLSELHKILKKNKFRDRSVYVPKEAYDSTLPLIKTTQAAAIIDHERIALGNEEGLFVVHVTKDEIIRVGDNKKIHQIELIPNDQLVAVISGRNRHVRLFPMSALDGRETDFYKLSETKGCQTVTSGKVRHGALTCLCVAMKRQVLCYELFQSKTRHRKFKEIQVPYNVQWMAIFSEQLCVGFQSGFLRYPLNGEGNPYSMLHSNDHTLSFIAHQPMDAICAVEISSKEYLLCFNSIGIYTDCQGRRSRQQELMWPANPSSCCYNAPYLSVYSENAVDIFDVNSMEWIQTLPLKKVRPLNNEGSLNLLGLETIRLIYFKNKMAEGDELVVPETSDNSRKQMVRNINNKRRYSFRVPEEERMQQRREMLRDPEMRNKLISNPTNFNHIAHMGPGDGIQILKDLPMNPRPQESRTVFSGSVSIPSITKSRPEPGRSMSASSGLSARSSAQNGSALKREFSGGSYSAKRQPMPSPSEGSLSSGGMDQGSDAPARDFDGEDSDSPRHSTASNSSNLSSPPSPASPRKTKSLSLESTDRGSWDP
Beta-1 adrenergic receptor (Homo sapiens), sequence (P08588 whole entry, looked up): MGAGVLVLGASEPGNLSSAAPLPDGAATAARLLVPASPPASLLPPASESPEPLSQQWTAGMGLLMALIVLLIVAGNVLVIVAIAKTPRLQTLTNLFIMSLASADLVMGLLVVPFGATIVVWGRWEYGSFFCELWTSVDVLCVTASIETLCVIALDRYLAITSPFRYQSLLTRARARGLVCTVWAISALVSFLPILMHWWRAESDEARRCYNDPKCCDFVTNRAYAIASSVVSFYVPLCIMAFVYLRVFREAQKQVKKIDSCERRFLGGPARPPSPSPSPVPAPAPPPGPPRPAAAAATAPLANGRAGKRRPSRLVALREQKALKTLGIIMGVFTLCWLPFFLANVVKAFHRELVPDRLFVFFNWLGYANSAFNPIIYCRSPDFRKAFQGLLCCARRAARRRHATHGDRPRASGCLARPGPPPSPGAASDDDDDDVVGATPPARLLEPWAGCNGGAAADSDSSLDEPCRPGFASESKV
Sigma intracellular receptor 2 (Homo sapiens), sequence (Q5BJF2 whole entry): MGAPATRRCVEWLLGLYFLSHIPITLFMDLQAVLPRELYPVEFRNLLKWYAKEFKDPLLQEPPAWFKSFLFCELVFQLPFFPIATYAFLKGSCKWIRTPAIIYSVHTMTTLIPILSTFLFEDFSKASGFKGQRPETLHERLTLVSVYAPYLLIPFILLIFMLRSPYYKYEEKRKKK
D(2) dopamine receptor (Homo sapiens), sequence (P14416 whole entry): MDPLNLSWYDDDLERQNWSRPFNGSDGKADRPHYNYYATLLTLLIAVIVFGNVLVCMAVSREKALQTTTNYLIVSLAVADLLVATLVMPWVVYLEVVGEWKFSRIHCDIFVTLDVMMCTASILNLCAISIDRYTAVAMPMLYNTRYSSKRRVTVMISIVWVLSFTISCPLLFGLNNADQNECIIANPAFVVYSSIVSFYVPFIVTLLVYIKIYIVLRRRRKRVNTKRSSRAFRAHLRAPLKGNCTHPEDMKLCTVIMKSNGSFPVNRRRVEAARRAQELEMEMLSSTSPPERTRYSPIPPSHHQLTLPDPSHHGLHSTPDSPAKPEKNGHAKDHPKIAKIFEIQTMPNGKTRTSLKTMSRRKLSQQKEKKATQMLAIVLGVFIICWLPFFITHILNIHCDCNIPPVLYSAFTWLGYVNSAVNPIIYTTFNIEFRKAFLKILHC
SRSF protein kinase 1 (Homo sapiens), sequence (Q96SB4 whole entry): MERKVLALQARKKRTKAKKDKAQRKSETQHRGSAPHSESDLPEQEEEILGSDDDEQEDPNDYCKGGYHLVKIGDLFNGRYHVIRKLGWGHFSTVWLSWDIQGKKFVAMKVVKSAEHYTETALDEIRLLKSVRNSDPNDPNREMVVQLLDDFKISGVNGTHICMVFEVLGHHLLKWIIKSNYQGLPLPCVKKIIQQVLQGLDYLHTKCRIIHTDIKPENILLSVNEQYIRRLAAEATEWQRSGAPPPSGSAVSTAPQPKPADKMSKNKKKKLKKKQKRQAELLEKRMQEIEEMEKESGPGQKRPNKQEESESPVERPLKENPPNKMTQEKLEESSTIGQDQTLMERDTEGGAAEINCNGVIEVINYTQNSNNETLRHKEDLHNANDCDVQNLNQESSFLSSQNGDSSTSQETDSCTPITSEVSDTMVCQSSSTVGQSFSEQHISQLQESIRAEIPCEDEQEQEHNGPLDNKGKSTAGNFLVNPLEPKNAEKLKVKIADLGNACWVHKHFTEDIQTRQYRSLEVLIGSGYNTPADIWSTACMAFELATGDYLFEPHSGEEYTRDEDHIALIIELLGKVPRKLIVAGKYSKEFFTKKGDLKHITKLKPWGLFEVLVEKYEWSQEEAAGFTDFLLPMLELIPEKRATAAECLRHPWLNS
MAP kinase-activated protein kinase 2 (Homo sapiens), sequence (P49137 whole entry, looked up): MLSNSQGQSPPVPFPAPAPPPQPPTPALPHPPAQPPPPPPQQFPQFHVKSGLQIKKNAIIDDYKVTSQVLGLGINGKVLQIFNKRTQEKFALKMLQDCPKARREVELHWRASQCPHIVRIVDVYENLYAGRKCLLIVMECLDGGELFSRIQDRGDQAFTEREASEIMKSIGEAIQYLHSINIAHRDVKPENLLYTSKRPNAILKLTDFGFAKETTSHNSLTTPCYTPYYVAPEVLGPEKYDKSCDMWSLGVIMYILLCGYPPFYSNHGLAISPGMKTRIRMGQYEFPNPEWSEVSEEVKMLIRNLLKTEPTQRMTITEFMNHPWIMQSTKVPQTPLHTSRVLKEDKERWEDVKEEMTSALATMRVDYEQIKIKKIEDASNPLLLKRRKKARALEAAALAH
Mitogen-activated protein kinase 8 (Homo sapiens), sequence (P45983 whole entry): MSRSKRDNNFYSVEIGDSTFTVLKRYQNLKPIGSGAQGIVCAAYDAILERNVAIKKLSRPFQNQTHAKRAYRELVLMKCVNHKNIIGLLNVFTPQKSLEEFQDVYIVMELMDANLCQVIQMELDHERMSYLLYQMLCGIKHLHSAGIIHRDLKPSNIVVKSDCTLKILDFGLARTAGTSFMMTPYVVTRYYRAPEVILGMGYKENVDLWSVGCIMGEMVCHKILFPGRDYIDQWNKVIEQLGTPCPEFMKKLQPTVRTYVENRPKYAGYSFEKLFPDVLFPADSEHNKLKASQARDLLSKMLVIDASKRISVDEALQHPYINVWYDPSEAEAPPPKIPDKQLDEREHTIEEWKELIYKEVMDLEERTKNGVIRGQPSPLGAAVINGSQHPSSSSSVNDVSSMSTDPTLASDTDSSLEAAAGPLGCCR
Sigma non-opioid intracellular receptor 1 (Homo sapiens), sequence (Q99720 whole entry): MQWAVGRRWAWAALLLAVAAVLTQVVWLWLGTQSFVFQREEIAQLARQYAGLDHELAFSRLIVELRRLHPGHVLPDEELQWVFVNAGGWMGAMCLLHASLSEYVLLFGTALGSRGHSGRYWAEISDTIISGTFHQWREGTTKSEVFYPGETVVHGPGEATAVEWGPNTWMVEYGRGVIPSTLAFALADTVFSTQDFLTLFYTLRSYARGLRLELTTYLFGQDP

Row | Structure (SMILES) | inhibition [1] [%] | inhibition [2] [%] | delta Tm Staurosporine positive control [3] | ΔTm [3] | delta Tm Staurosporine positive control [4] | ΔTm [4] | delta Tm Staurosporine positive control [5] | ΔTm [5] | delta Tm Staurosporine positive control [6] | ΔTm [6] | delta Tm Staurosporine positive control [7] | ΔTm [7] | delta Tm Staurosporine positive control [8] | ΔTm [8] | inhibition [9] [%] | inhibition [10] [%] | inhibition [11] [%] | delta Tm Staurosporine positive control [12] | ΔTm [12] | delta Tm Staurosporine positive control [13] | further results
1 | CCC[C@H]1CNCc2c1[nH]c(=O)c(C#N)c2N1CCC2(CC1)CC2 | -8.08 | 18.1 | 3.2 | 0.0908 | 7.45 | -0.298 | 17.7 | 0.00768 | 7.03 | 0.0527 | 20.5 | 0.00646 | 7.21 | -0.68 | 15.9 | -5 | 3.01 | 3.96 | -0.289 | 7.17 | ΔTm [13]: -0.269; delta Tm Staurosporine positive control [14]: 7.85; ΔTm [14]: -2.08
2 | CCC[C@@H]1CNCc2c1[nH]c(=O)c(C#N)c2N1CCC2(CC1)CC2 | 5.97 | 13.2 | 3.2 | 0.159 | 7.45 | -0.293 | 17.7 | -0.154 | 7.03 | 0.00192 | 20.5 | -0.0175 | 7.21 | -0.679 | 18.8 | -4.19 | -4.21 | 3.96 | -0.281 | 7.17 | ΔTm [13]: -0.188; delta Tm Staurosporine positive control [14]: 7.85; ΔTm [14]: -2.14
